Test results from patent US5968912A, “Methods for immunosuppressing” (Immune Modulation, Inc., priority 1997, dated 1999).

Tests used:
[1] = tested on: Interferon-gamma; experiment: Interferon-gamma production in PHA-stimulated PBMC cultures; type: cell-based, human; set-up: % Inhibition of IFN-γ production: concentration or dose not given beside the values
Procedure: Production of autocrine growth factors (IL-2, IL-4, IL-10 and Interferon-gamma) in PHA-stimulated human PBMC cultures
Culture supernatants were collected at the times indicated and frozen at -20° C. At the end of 96 hr., all supernatants were assayed by enzyme immunoassay for the presence of the cytokines: interleukin-2, -4, -10 and interferon (IFN)-gamma. Results were expressed in pg/mL concentration of cytokine and % inhibition of cytokine production.

[2] = tested on: mononuclear leukocytes (Two-way MLR); experiment: Two-way mixed leukocyte reaction (MLR), 3H-thymidine incorporation; type: cell-based, human
[3] = tested on: anti-CD3-induced T-cell proliferation (PBMC); experiment: Anti-CD3-induced T-cell proliferation; type: cell-based, human; settings: anti-CD3 1 ng/mL
Procedure: Anti-T cell receptor (TCR)/CD3 induced T cell proliferation
PBMC of a healthy volunteer were cultured in 96-well microtiter plates at 2×10^5 cells/well. […] Cultures were incubated for 3 days at 37° C. in a 5% CO2 incubator. Proliferative response was determined by incorporation of ^3 H-thymidine.
Anti-CD3 mAb was used at 1 ng/mL concentration.

[4] = tested on: Human T-lymphocyte-mediated cytolysis (cytotoxic CD8+ T-cells); experiment: One-way MLR-generated T-lymphocyte-mediated cytolysis (CTL assay, 51Cr release); type: cell-based
[5] = tested on: Protein Kinase-C-Mediated T-cell Proliferation (PBMC); experiment: PK-C-mediated T-cell proliferation (PMA + A23187); type: cell-based, human; settings: PMA 1.25 ng/mL + A23187 0.25 μM
Procedure: Determination of the effect of HE-33 on PK-C-mediated signaling pathway
PBMC of a healthy volunteer were cultured in 96-well microtiter plates at 2×10^5 cells/well. […] Forskolin is an agent well known to increase intacellular cAMP levels by activating adenylate cyclase. Cultures were incubated for 3 days at 37° C. in a 5% CO2 incubator. Proliferative response was determined by incorporation of ^3 H-thymidine.. The results were expressed in CPM and % inhibition of proliferation (Table 7).

[6] = tested on: skin graft rejection (Balb/C tail skin on C57BL/6 mice); experiment: Skin graft survival in mice; type: in vivo, mouse
Procedure: Effect of HE-33 on Skin-Grafting
Balb/C and C57BL/6 mice are genetically histoincompatible in that Balb/C is of haplotype H-2^d whereas C57BL/6 is of haplotype H-2^b. The surgical procedure used in these experiments was performed according to the procedures reported by Matriano, J. E. et al. (J. Immunol., 1996, 156:4114-4119).
Mice in groups 4 and 5 were orally administered HE-33 daily from 2 days prior to grafting. Rejection was assessed by observing redness and dryness of the graft (Natriano, J. E. et al., J. Immunol., 1996, 153:1505-1514). At a dose of 100 mg/kg I.V., HE-33 prolonged graft survival by approximately 4 days.
C57BL/6 mice were grafted with tail skin from Balb/c mice. Drug treatment
was started two days prior to grafting. Casts were removed on day 6 and
survival of the graft was scored everyday. Rejection was defined on chang
in thickness, dryness and >80% redness of the graft.

[7] = tested on: H-2K anti-H-2d cytotoxic T-cells; experiment: Generation of H-2K anti-H-2d cytotoxic T-cell activity in mice, ex vivo 51Cr-release assay; set-up: species or system mouse (C3H/J; DBA/2 targets)
Procedure: Generation of H-2 Restricted Cytolytic T-lymphocytes in Mice
A mouse correlate of the human "one-way MLR" was developed in inbred strains of mice. The cells of one mouse strain (H-2^d) were injected i.v. into a different mouse strain (H-2^k). Mice were obtained from Charles River Laboratories, Hollister, Calif.). Because of the histoincompatibility between the two strains, the H-2^k mice develop cytotoxic T-cells capable of killing the cells of the H-2^d strain of mice (Abbas, A. K., id), which is the type of reaction observed in humans or animals receiving tissue grafts from histoincompatible donors. The H-2^k mice sensitized against H-2^d cells/allo-antigens were treated with either HE-33 (100 mg/kg i.v. or 400 mg/kg orally) every three days for 9 days or were not treated with drug.
Ex Vivo Assay. On the tenth day, all mice were sacrificed, and spleens were removed to test for splenic T-cell-mediated cytotoxicity against CON-A stimulated DBA/2 spleen cells expressing the H-2^d antigens. CON-A was obtained from Sigma Chem. Co., St. Louis, Mo. Spleen cell suspensions were prepared in complete culture medium and adjusted to desired concentrations. The CON-A blast cells were radiolabeled with ^51 Cr and mixed with the respective splenic effector cells at varying effector:target cell ratios in 96-well microtiter plates. The mixtures were cultured for 4 hr. at 37° C. in a 5% CO2 incubator. Lysis of target cells were assessed essentially as described previously for a ^51 Cr-release assay (Ojo-Amaize, E. A., et al., id) and results expressed as % specific lysis (FIG. 1).
*C3 H/J mouse was injected with 2 × 10^7 DBA/2 spleen cell
for 9 days. HE33 was administered either orally (400 mg/kg) or
intravenously (100 mg/kg) on day 0 and every three days. ConA stimulated
DBA/2 spleen cells were used as target cells.

CCCN(CCC)c1ncnc2c1ncn2[C@@H]1O[C@@H]2COP(=O)(O)O[C@H]2[C@H]1O [HE-33, N^6,N^6 -di-n-Propyl-c-AMP]
% Inhibition of IFN-γ production ([1]; 24 hours): 0% | IFN-γ production ([1]; 24 hours): 980 pg/mL | % Inhibition of IFN-γ production ([1]; 48 hours): 9% | IFN-γ production ([1]; 48 hours): 6146 pg/mL | % Inhibition of IFN-γ production ([1]; 72 hours): 0% | IFN-γ production ([1]; 72 hours): 5390 pg/mL | % Inhibition of IFN-γ production ([1]; 96 hours): 0% | IFN-γ production ([1]; 96 hours): 6105 pg/mL | IC50 ([2]; Homo sapiens, Leukocyte, read-out: IC50, drug concentration capable of inducing a 50% inhibition): 100 to 1000 nM | inhibition at 0.01 µM ([2]; Homo sapiens, Leukocyte, 0.01 μM): 28% | inhibition at 0.1 µM ([2]; Homo sapiens, Leukocyte, 0.1 μM): 40% | inhibition at 1 µM ([2]; Homo sapiens, Leukocyte, 1 μM): 81% | inhibition at 10 µM ([2]; Homo sapiens, Leukocyte, 10 μM): 96% | inhibition at 100 µM ([2]; Homo sapiens, Leukocyte, 100 μM): 99.2% | Inhibitory capacity on two-way MLR, in words ([2]; two-way MLR): comparable to that of cyclosporin (CsA) | Proliferation ([3]; 10 μM): 289 CPM | Proliferation ([3]; 100 μM): 43 CPM | inhibition at 10 µM ([3]; Homo sapiens, T-cell, 10 μM): 77% | inhibition at 100 µM ([3]; Homo sapiens, T-cell, 100 μM): 97% | % Specific Lysis ([4]; 100 μM, E:T 25:1): 4% | inhibition at 100 µM ([4]; Homo sapiens, T-cell, E:T 25:1, read-out: % Inhibition of lysis): 80% | Proliferation ([5]; 100 μM): 31 CPM | inhibition at 100 µM ([5]; Homo sapiens, T-cell): 97% | Mean Survival Time ([6]; 50 mg/kg (I.V.)): 10.25 days | Mean Survival Time ([6]; 100 mg/kg (I.V.)): 13.4 days | Prolongation of graft survival ([6]; 100 mg/kg I.V.): approximately 4 days | Mean Survival Time ([6]; 200 mg/kg (oral)): 9.2 days | Mean Survival Time ([6]; 400 mg/kg (oral)): 9.8 days | L.U. ([7]; I.V. injected 100 mg/kg): 1 L.U. | % Inhibition of cytotoxic T-cell activity ([7]; I.V. injected 100 mg/kg every three days): 92% | % Lysis ([7]; I.V. injected 100 mg/kg, ratio 3.12:1): 0% | % Lysis ([7]; I.V. injected 100 mg/kg, ratio 6.25:1): 0% | % Lysis ([7]; I.V. injected 100 mg/kg, ratio 12.5:1): 0% | % Lysis ([7]; I.V. injected 100 mg/kg, ratio 25:1): 1% | % Inhibition of cytotoxic T-cell activity ([7]; oral fed 400 mg/kg): 32% | L.U. ([7]; oral fed 400 mg/kg): 9 L.U. | % Lysis ([7]; oral fed 400 mg/kg, ratio 3.12:1): 1% | % Lysis ([7]; oral fed 400 mg/kg, ratio 6.25:1): 2% | % Lysis ([7]; oral fed 400 mg/kg, ratio 12.5:1): 2% | % Lysis ([7]; oral fed 400 mg/kg, ratio 25:1): 5%
